Assay results as given in ChEMBL document CHEMBL3045459 (Med Chem Res, 2013).
Values after ≈ are worked out from the molar mass of the structure shown. Active and inactive are the calls of the source. The calls are words filed in the database; no cut-off is given here.

Assays:
Assay type in all cases: functional
Shigella flexneri = test: Antibacterial activity against Shigella flexneri assessed as growth inhibition after 24 hr by agar well diffusion method
Bacillus subtilis = test: Antibacterial activity against Bacillus subtilis assessed as growth inhibition after 24 hr by agar well diffusion method
Aspergillus flavus = test: Antifungal activity against Aspergillus flavus assessed as growth inhibition after 48 hr by broth dilution method
Salmonella typhi = test: Antibacterial activity against Salmonella enterica subsp. enterica serovar Typhi assessed as growth inhibition after 24 hr by agar well diffusion method
Pseudomonas aeruginosa = test: Antibacterial activity against Pseudomonas aeruginosa assessed as growth inhibition after 24 hr by agar well diffusion method
Escherichia coli = test: Antibacterial activity against Escherichia coli assessed as growth inhibition after 24 hr by agar well diffusion method
Aspergillus fumigatus = test: Antifungal activity against Aspergillus fumigatus assessed as growth inhibition after 48 hr by broth dilution method
Alternaria alternata = test: Antifungal activity against Alternaria alternata assessed as growth inhibition after 48 hr by broth dilution method
Staphylococcus aureus = test: Antibacterial activity against Staphylococcus aureus assessed as growth inhibition after 24 hr by agar well diffusion method

SMILES: Nc1nc(-c2ccc(-n3ccnc3)cc2)cc(-c2cc(Cl)ccc2Cl)n1
- diameter of the inhibition zone (DIZ) (Shigella flexneri): 12 mm
- diameter of the inhibition zone (DIZ) (Bacillus subtilis): 12 mm
- MIC (Aspergillus flavus): > 1000 µg/mL
- growth inhibition (GI) (Salmonella typhi): inactive
- growth inhibition (GI) (Pseudomonas aeruginosa): inactive
- diameter of the inhibition zone (DIZ) (Escherichia coli): 12 mm
- MIC (Aspergillus fumigatus): > 1000 µg/mL
- MIC (Alternaria alternata): > 1000 µg/mL
- growth inhibition (GI) (Staphylococcus aureus): inactive

SMILES: C[C@@H](O)[C@H]1C(=O)N2C(C(=O)O)=C(SCCNC=N)C[C@H]12 [IMIPENEM ANHYDROUS]
- diameter of the inhibition zone (DIZ) (Shigella flexneri): 30 mm
- diameter of the inhibition zone (DIZ) (Bacillus subtilis): 30 mm
- diameter of the inhibition zone (DIZ) (Salmonella typhi): 25 mm
- diameter of the inhibition zone (DIZ) (Pseudomonas aeruginosa): 31 mm
- diameter of the inhibition zone (DIZ) (Escherichia coli): 35 mm
- diameter of the inhibition zone (DIZ) (Staphylococcus aureus): 30 mm

SMILES: Nc1nc(-c2ccc(I)cc2)cc(-c2ccc(-n3ccnc3)cc2)n1
- growth inhibition (GI) (Shigella flexneri): inactive
- diameter of the inhibition zone (DIZ) (Bacillus subtilis): 21 mm
- MIC (Aspergillus flavus): 1000 µg/mL (≈ 2280 µM)
- growth inhibition (GI) (Salmonella typhi): inactive
- growth inhibition (GI) (Pseudomonas aeruginosa): inactive
- diameter of the inhibition zone (DIZ) (Escherichia coli): 20 mm
- MIC (Aspergillus fumigatus): 1000 µg/mL (≈ 2280 µM)
- MIC (Alternaria alternata): 1000 µg/mL (≈ 2280 µM)
- diameter of the inhibition zone (DIZ) (Staphylococcus aureus): 16 mm

SMILES: Nc1nc(-c2ccc(-n3ccnc3)cc2)cc(-c2ccc(Cl)cc2Cl)n1
- diameter of the inhibition zone (DIZ) (Shigella flexneri): 10 mm
- growth inhibition (GI) (Bacillus subtilis): inactive
- MIC (Aspergillus flavus): > 1000 µg/mL
- growth inhibition (GI) (Salmonella typhi): inactive
- growth inhibition (GI) (Pseudomonas aeruginosa): inactive
- diameter of the inhibition zone (DIZ) (Escherichia coli): 14 mm
- MIC (Aspergillus fumigatus): > 1000 µg/mL
- MIC (Alternaria alternata): 1000 µg/mL (≈ 2620 µM)
- diameter of the inhibition zone (DIZ) (Staphylococcus aureus): 11 mm

SMILES: Nc1nc(-c2ccc(Cl)cc2)cc(-c2ccc(-n3ccnc3)cc2)n1
- diameter of the inhibition zone (DIZ) (Shigella flexneri): 11 mm
- diameter of the inhibition zone (DIZ) (Bacillus subtilis): 12 mm
- MIC (Aspergillus flavus): 1000 µg/mL (≈ 2880 µM)
- growth inhibition (GI) (Salmonella typhi): inactive
- growth inhibition (GI) (Pseudomonas aeruginosa): inactive
- diameter of the inhibition zone (DIZ) (Escherichia coli): 18 mm
- MIC (Aspergillus fumigatus): 1000 µg/mL (≈ 2880 µM)
- MIC (Alternaria alternata): 1000 µg/mL (≈ 2880 µM)
- growth inhibition (GI) (Staphylococcus aureus): inactive

SMILES: COc1ccc(-c2cc(-c3ccc(-n4ccnc4)cc3)nc(N)n2)cc1
- diameter of the inhibition zone (DIZ) (Shigella flexneri): 11 mm
- diameter of the inhibition zone (DIZ) (Bacillus subtilis): 14 mm
- MIC (Aspergillus flavus): > 1000 µg/mL
- growth inhibition (GI) (Salmonella typhi): inactive
- diameter of the inhibition zone (DIZ) (Pseudomonas aeruginosa): 11 mm
- diameter of the inhibition zone (DIZ) (Escherichia coli): 12 mm
- MIC (Aspergillus fumigatus): 1000 µg/mL (≈ 2910 µM)
- MIC (Alternaria alternata): > 1000 µg/mL
- growth inhibition (GI) (Staphylococcus aureus): inactive

SMILES: Nc1nc(-c2ccccc2)cc(-c2ccc(-n3ccnc3)cc2)n1
- growth inhibition (GI) (Shigella flexneri): inactive
- diameter of the inhibition zone (DIZ) (Bacillus subtilis): 13 mm
- MIC (Aspergillus flavus): 1000 µg/mL (≈ 3190 µM)
- growth inhibition (GI) (Salmonella typhi): inactive
- growth inhibition (GI) (Pseudomonas aeruginosa): inactive
- diameter of the inhibition zone (DIZ) (Escherichia coli): 11 mm
- MIC (Aspergillus fumigatus): 1000 µg/mL (≈ 3190 µM)
- MIC (Alternaria alternata): > 1000 µg/mL
- growth inhibition (GI) (Staphylococcus aureus): inactive

SMILES: Nc1nc(-c2ccc(Br)cc2)cc(-c2ccc(-n3ccnc3)cc2)n1
- diameter of the inhibition zone (DIZ) (Shigella flexneri): 12 mm
- diameter of the inhibition zone (DIZ) (Bacillus subtilis): 13 mm
- MIC (Aspergillus flavus): 1000 µg/mL (≈ 2550 µM)
- growth inhibition (GI) (Salmonella typhi): inactive
- growth inhibition (GI) (Pseudomonas aeruginosa): inactive
- diameter of the inhibition zone (DIZ) (Escherichia coli): 12 mm
- MIC (Aspergillus fumigatus): 1000 µg/mL (≈ 2550 µM)
- MIC (Alternaria alternata): > 1000 µg/mL
- diameter of the inhibition zone (DIZ) (Staphylococcus aureus): 12 mm

SMILES: Nc1nc(-c2ccc(-n3ccnc3)cc2)cc(-c2ccc(Cl)c(Cl)c2Cl)n1
- diameter of the inhibition zone (DIZ) (Shigella flexneri): 11 mm
- diameter of the inhibition zone (DIZ) (Bacillus subtilis): 15 mm
- MIC (Aspergillus flavus): > 1000 µg/mL
- growth inhibition (GI) (Salmonella typhi): inactive
- growth inhibition (GI) (Pseudomonas aeruginosa): inactive
- diameter of the inhibition zone (DIZ) (Escherichia coli): 18 mm
- MIC (Aspergillus fumigatus): > 1000 µg/mL
- MIC (Alternaria alternata): > 1000 µg/mL
- diameter of the inhibition zone (DIZ) (Staphylococcus aureus): 15 mm

SMILES: COc1cccc(-c2cc(-c3ccc(-n4ccnc4)cc3)nc(N)n2)c1
- growth inhibition (GI) (Shigella flexneri): inactive
- growth inhibition (GI) (Bacillus subtilis): inactive
- MIC (Aspergillus flavus): 1000 µg/mL (≈ 2910 µM)
- growth inhibition (GI) (Salmonella typhi): inactive
- diameter of the inhibition zone (DIZ) (Pseudomonas aeruginosa): 12 mm
- diameter of the inhibition zone (DIZ) (Escherichia coli): 13 mm
- MIC (Aspergillus fumigatus): > 1000 µg/mL
- MIC (Alternaria alternata): 1000 µg/mL (≈ 2910 µM)
- diameter of the inhibition zone (DIZ) (Staphylococcus aureus): 14 mm

SMILES: COc1cc(-c2cc(-c3ccc(-n4ccnc4)cc3)nc(N)n2)ccc1OO
- growth inhibition (GI) (Shigella flexneri): inactive
- growth inhibition (GI) (Bacillus subtilis): inactive
- MIC (Aspergillus flavus): 1000 µg/mL (≈ 2660 µM)
- growth inhibition (GI) (Salmonella typhi): inactive
- diameter of the inhibition zone (DIZ) (Pseudomonas aeruginosa): 10 mm
- diameter of the inhibition zone (DIZ) (Escherichia coli): 15 mm
- MIC (Aspergillus fumigatus): > 1000 µg/mL
- MIC (Alternaria alternata): > 1000 µg/mL
- diameter of the inhibition zone (DIZ) (Staphylococcus aureus): 13 mm

SMILES: Nc1nc(-c2ccc(F)cc2)cc(-c2ccc(-n3ccnc3)cc2)n1
- diameter of the inhibition zone (DIZ) (Shigella flexneri): 12 mm
- growth inhibition (GI) (Bacillus subtilis): inactive
- MIC (Aspergillus flavus): 1000 µg/mL (≈ 3020 µM)
- growth inhibition (GI) (Salmonella typhi): inactive
- growth inhibition (GI) (Pseudomonas aeruginosa): inactive
- diameter of the inhibition zone (DIZ) (Escherichia coli): 16 mm
- MIC (Aspergillus fumigatus): 500 µg/mL (≈ 1510 µM)
- MIC (Alternaria alternata): 1000 µg/mL (≈ 3020 µM)
- growth inhibition (GI) (Staphylococcus aureus): inactive
